For four molecules, IC50 and cross-reactivity results are on record in patent publication US5591648A, “Antibodies for mevalonic acid and methods for immunological determination of mevalonic acid by using them” (Ono Pharmaceutical Co., Ltd., priority 1993, dated 1997).

Common to all, as to assay type: binding
The subject of experiment [1] is rabbit polyclonal antibody KLH-(12)R for mevalonic acid. As to the kind of experiment: Cross-reaction of rabbit polyclonal antibody with analogues of mevalonic acid (radioimmunoassay, competition with R-[2-14C] mevalonic acid). The following applies: for IC50: competition with 400 Bq R-[2-14C] mevalonic acid, overnight at 4° C., polyethylene glycol precipitation. The procedure:
After about 4 weeks, the rabbit was sensitized four times for each 2 weeks, by an emulsion of a PBS solution (500 μl) containing of the antigen for immunization prepared by the same procedure as hereinbefore described, and FICA (500 μl).
Blood was collected from the rabbit and to the serum prepared (50 μl) were added successively water (450 μl), 0.5% γ-globulin (80 μl) and a saturated aqueous solution of ammonium sulfate (580 μl), and then the mixture was centrifuged. The precipitation was dissolved into 50 mM PB (200 μl), and 50 mM PB (100 μl) containing R-[2-^14 C] mevalonic acid (400 Bq) was added thereto and the mixture was reacted overnight at 4° C. To the mixture was added successively 0.1M PB (200 μl) containing 0.5% bovine γ-globulin and 30% polyethylene glycol 6000 (register trademark, Wako Pure Chem Ind. Ltd. 600 μl), and then the mixture was centrifuged. Radioactivity of the precipitation was measured. […] This blood serum was called as polyclonal antibody, KLH-(12)R.
To 50 mM PB containing 400 Bq of R-[2-^14 C] mevalonic acid (100 μl) was added successively a solution of antibody (the mixture of the polyclonal antibody KLH-(12)R of the present invention, water, (0.5% γ-globulin and a saturated aqueous solution of ammonium sulfate in the ratio of 0.5:4.5:0.8:5.8 was centrifugalized, and the obtained precipitation was dissolved into a solution of 50 mM PB of four times as much as amount of the used polyclonal antibody, 100 μl) and a standard solution of mevalonic acid analogous compound as indicated following table (a solution of 50 mM PB, 100 μl) in the polystyrene tube, and then the mixture was allowed to stand overnight at 4° C. To the reaction mixture was added a solution of 0.5% γ-globulin (200 μl), and further added 30% polyethylene glycol 6000 (600 μl), and then the mixture was centrifuged. The precipitation was dissolved into 0.1N aqueous solution of sodium hydroxide, and added the liquid of scintillator (1 ml), and measured radioactivity.

Experiment [2] has as its target mouse monoclonal antibody MHM-9H (IgG2b, k; hybridoma FERM BP-4524) for mevalonic acid. As to the kind of experiment: Cross-reaction of mouse monoclonal antibody with analogues of mevalonic acid (enzyme immunoassay, solid phase first antibody). Particulars: for IC50: antibody MHM-9H coated 7 μg/ml, peroxidase-labeled antigen (18), overnight at 4° C., absorbance 450 nm; for cross-reactivity: antibody MHM-9H, relative to mevalonic acid = 100. As to the method: A solution of antibody (prepared in example 10 as hereinafter defined) was placed with 100 μl portions in a polystyrene 96 wells micro plate (prepared by NUNC Co.). The micro plate was allowed to stand for 1.5 hours at room temperature to be fixed. After the removal of an aqueous layer, 50 mM PB (400 μl) containing 0.5% BSA was added to block the inside of a wall of wells for 1 hour at room temperature.
After the removal of an aqueous layer, 50 mM PB (100 μl) containing mevalonic acid analogues of various concentrations was added. A solution of labeled antigen (prepared in example 10 as hereinafter defined) was added thereto with 100 μl portions and then the mixture was allowed to stand overnight at 4° C. After the removal of an aqueous layer, the dishes were washed twice with 50 mM PB (300 μl) containing 0.05% Tween 20. The substrate solution (prepared in example 9 as hereinafter, 250 μl) was added thereto and then the mixture was reacted for 15 minutes at room temperature. After the reaction was stopped by the addition of 1N sulfuric acid (50 μl), and the absorbance was measured at 450 nm.
A conjugate (18) of mevalonic acid derivative and a specer (prepared) in example 1(b). 175 nmol) was added to PBS (175 μl) containing a horse-radish peroxidase (prepared by Toyobo, 350 μg) and then the mixture was reacted for 2 hours at room temperature and then overnight at 4° C. The reaction mixture was dialyzed by a mixture of 1,4-dioxane and PBS (1:1) and then by PBS. An obtained enzyme-labeled antigen was diluted with 50 mM PB containing 0.1% BSA to become 1.25 ng/100 μl (as peroxidase protein).
Monoclonal antibody of the present invention, MHM-9H (prepared in example 5), was prepared by 50 mM PB to become 7 μg/ml.

Experiment [3] addresses mouse polyclonal antibody KLH-(18)M for mevalonic acid. As to the kind of experiment: Enzyme immunoassay of mevalonic acid, solid phase antigen method, mouse polyclonal antibody KLH-(18)M. Particulars: KLH-(18)M diluted 2 × 10^3; coated BSA-(31) 0.01 μg/ml; second antibody and blocking (B). The procedure:
(§1) An emulsion of PBS (100 μl) containing each of various antigens for immunization prepared in Example 2 (120 μg as BSA when a BSA-conjugate is used or 120 μg as KLH when a KLH-conjugate is used), and FCA (100 μl) was intraperitoneally administered to a male BALC/c mouse aged eight weeks. After about 2 weeks, the mouse was immunized five times every 2 weeks, by an emulsion of a PBS solution (100 μl) containing of the antigen for immunization and FICA (100 μl), prepared by the same procedure as hereinbefore described. After the second and fifth immunization with the antigen for immunization and FICA, the titer of antibody in blood was measured by the method shown below.
(§2) Anti-mouse IgG antibody labeled with the horse-radish peroxidase (prepared by Vector Co.), which was diluted with 50 mM PB containing 0.1% BSA 10000 times (a solution of the second antibody (B)), and which was diluted with 50 mM PB containing 0.1% OVA 10000 times (a solution of the second antibody (O)). […]
(§3) After the removal of an aqueous layer, a standard solution (100 μl) was added thereto. […] After a stopping solution (50 μl) added thereto, and the absorbance was measured at 450 nm.
(§4) On all mouse polyclonal antibody, standard calibration curves were made by platting B/B0 calculated from the measured absorbance.

For experiment [4], the target named is mouse polyclonal antibody KLH-(12)M for mevalonic acid. The experiment in a line: Enzyme immunoassay of mevalonic acid, solid phase antigen method, mouse polyclonal antibody KLH-(12)M. Particulars: KLH-(12)M diluted 10^4; coated BSA-(31) 0.01 μg/ml; second antibody and blocking (B). The procedure:
as §1, §2, §3, §4

Experiment [5] deals with mouse polyclonal antibody KLH-(39)M for mevalonic acid. The experiment in a line: Enzyme immunoassay of mevalonic acid, solid phase antigen method, mouse polyclonal antibody KLH-(39)M. Particulars: KLH-(39)M diluted 3 × 10^4; coated BSA-(12) 0.01 μg/ml; second antibody and blocking (B). The procedure: as §1, §2, §3, §4
The target in experiment [6] is mouse polyclonal antibody BSA-(19)M for mevalonic acid. As to the kind of experiment: Enzyme immunoassay of mevalonic acid, solid phase antigen method, mouse polyclonal antibody BSA-(19)M. The following applies: BSA-(19)M diluted 2 × 10^3; coated KLH-(31) 0.01 μg/ml; second antibody and blocking (O). As to the method: as §1, §2, §3, §4
Experiment [7] has as its target mouse polyclonal antibody KLH-(45)M for mevalonic acid. As to the kind of experiment: Enzyme immunoassay of mevalonic acid, solid phase antigen method, mouse polyclonal antibody KLH-(45)M. The following applies: KLH-(45)M diluted 2 × 10^3; coated BSA-(12) 0.1 μg/ml; second antibody and blocking (B). The procedure: as §1, §2, §3, §4
For experiment [8], the target named is mouse polyclonal antibody KLH-(31)M for mevalonic acid. The experiment in a line: Enzyme immunoassay of mevalonic acid, solid phase antigen method, mouse polyclonal antibody KLH-(31)M. Particulars: KLH-(31)M diluted 10^5; coated BSA-(12) 0.01 μg/ml; second antibody and blocking (B). The procedure:
as §1, §2, §3, §4

Experiment [9] has as its target mouse polyclonal antibody KLH-(53)M for mevalonic acid. The experiment in a line: Enzyme immunoassay of mevalonic acid, solid phase antigen method, mouse polyclonal antibody KLH-(53)M. Particulars: KLH-(53)M diluted 5 × 10^2; coated BSA-(39) 1 μg/ml; second antibody and blocking (B). As to the method: as §1, §2, §3, §4
Setting [10] is: relative to mevalonic acid = 100.

On to `CC(O)(CC(=O)O)CC(=O)O` [3-Hydroxy-3-methylglutaric acid], for which the figures for the IC50 in experiment [1] and in experiment [2] were 500 μg/test and more than 250 μg/test, respectively. Besides, the cross-reactivity in [1] (setting [10]) is listed as 0.013%; in experiment [2], less than 0.001%.

Take `O=C(O)CCCC(=O)O` [Glutaric acid]: the IC50 in experiment [1] is given as more than 6500 μg/test; in experiment [2], more than 250 μg/test. Further, the cross-reactivity in [1] (setting [10]) was less than 0.001%; in [1] (relative to mevalonic acid = 100, listed as glutaric acid), “less than 0.001%”; in experiment [2], less than 0.001%.

With `C[C@@](O)(CCO)CC(=O)O` [Mevalonic acid], the IC50 in experiment [1] was determined as 0.065 μg/test; in [3], 0.3 μg/test; in experiment [4], 0.5 μg/test; in experiment [5], 0.1 μg/test; in experiment [6], 3.6 μg/test; in experiment [7], 4.0 μg/test. Moreover, the figures for the IC50 in experiment [8], in [2] and in [9] were 0.7 μg/test, 0.0025 μg/test and 6.0 μg/test, respectively. Besides, the cross-reactivity in experiment [1] (setting [10]) and in [2] was 100% each time.

As to `CC(CC(=O)O)CC(=O)O` [3-Methylglutaric acid], the values for the IC50 in experiment [1] and in experiment [2] were 1000 μg/test and more than 250 μg/test, respectively. Further, the cross-reactivity is given as 0.0065% in experiment [1] (setting [10]) and less than 0.001% in experiment [2].
